Experimental data taken from the supplement of paper PMC10307832.

What follows are cell lines tested with Cc1nc(NC(=O)N2CCC[C@H]2C(N)=O)sc1-c1ccnc(C(C)(C)C(F)(F)F)c1 [Alpelisib] + CCNC(=O)c1noc(-c2cc(C(C)C)c(O)cc2O)c1-c1ccc(CN2CCOCC2)cc1 [Luminespib] (partner 0.01 µM) (assay: relative viability (nuclei count vs DMSO), 5 days (fraction); higher = more cells survive). Details: first compound 0.04 µM.
How it was run: (§1)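 Relative viability divides the nuclei count in treated wells by that in vehicle wells. Lung cancer cell lines were seeded in 1536-well plates, dosed by pin tool the next day, and fixed and stained after 5 days in one step with final 0.05% Triton X-100, 1% formaldehyde and 1 ug/ml Hoechst. Dosing was a single drug or a fixed anchor-drug dose plus five library-drug doses (not always all listed) in √10 steps, and values are medians of duplicate plates imaged at 4×.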

First: NCI-H2085
Second: NCI-H727
The relative viability of the first is higher: 0.504 for the first, 0.419 for the second.

First: NCI-H647
Second: HARA
The relative viability of the first is lower: 0.256 for the first, 0.406 for the second.

Compared with NCI-H3122, NCI-H358 is higher in relative viability: 0.077 for the first, 0.29 for the second.

First: CAL-12T
Second: COR-L 105
The relative viability of the first is lower: 0.394 for the first, 0.768 for the second.

Compared with LCLC-97TM1, NCI-H520 is lower in relative viability: 0.852 for the first, 0.18 for the second.

Compared with NCI-H2228, NCI-H23 is higher in relative viability: 0.142 for the first, 0.225 for the second.

Compared with HCC-827, NCI-H2347 is lower in relative viability: 0.703 for the first, 0.476 for the second.

Work on LXF-289 yielded a relative viability of 0.69.

Same assay, conditions: first compound 0.1265 µM

Going from NCI-H2085 to NCI-H727, the relative viability rises from 0.419 to 0.444.

Going from NCI-H647 to HARA, the relative viability rises from 0.203 to 0.955.

Going from NCI-H3122 to NCI-H358, the relative viability rises from 0.0664 to 0.23.

Going from CAL-12T to COR-L 105, the relative viability falls from 0.61 to 0.565.

Going from LCLC-97TM1 to NCI-H520, the relative viability falls from 0.707 to 0.203.

First: NCI-H2228
Second: HCC-827
The relative viability of the first is lower: 0.132 for the first, 0.594 for the second.

First: NCI-H2347
Second: LXF-289
The relative viability of the first is lower: 0.632 for the first, 0.806 for the second.

Same assay, conditions: first compound 0.4 µM

First: NCI-H2085
Second: NCI-H727
The relative viability of the first is higher: 0.46 for the first, 0.3 for the second.

First: NCI-H647
Second: HARA
The relative viability of the first is lower: 0.157 for the first, 0.896 for the second.

Going from NCI-H3122 to NCI-H358, the relative viability rises from 0.0978 to 0.32.

Compared with CAL-12T, COR-L 105 is higher in relative viability: 0.287 for the first, 0.956 for the second.

Compared with LCLC-97TM1, NCI-H520 is lower in relative viability: 0.705 for the first, 0.212 for the second.

Compared with NCI-H2228, NCI-H23 is higher in relative viability: 0.0885 for the first, 0.244 for the second.

Going from HCC-827 to NCI-H2347, the relative viability rises from 0.586 to 0.626.

Work on LXF-289 yielded a relative viability of 0.619.

Same assay, conditions: first compound 1.265 µM

Compared with NCI-H2085, NCI-H727 is lower in relative viability: 0.415 for the first, 0.371 for the second.

First: NCI-H647
Second: HARA
The relative viability of the first is lower: 0.117 for the first, 0.515 for the second.

Compared with NCI-H3122, NCI-H358 is higher in relative viability: 0.0788 for the first, 0.252 for the second.

Compared with CAL-12T, COR-L 105 is higher in relative viability: 0.177 for the first, 0.59 for the second.

Going from LCLC-97TM1 to NCI-H520, the relative viability falls from 0.279 to 0.245.

Compared with NCI-H2228, NCI-H23 is higher in relative viability: 0.101 for the first, 0.201 for the second.

First: HCC-827
Second: NCI-H2347
The relative viability of the first is lower: 0.406 for the first, 0.503 for the second.

For LXF-289, the relative viability was 0.534.

Same assay, conditions: first compound 4 µM

Compared with NCI-H2085, NCI-H727 is lower in relative viability: 0.364 for the first, 0.345 for the second.

Going from NCI-H647 to HARA, the relative viability rises from 0.168 to 0.341.

First: NCI-H3122
Second: NCI-H358
The relative viability of the first is lower: 0.0851 for the first, 0.215 for the second.

First: CAL-12T
Second: COR-L 105
The relative viability of the first is lower: 0.332 for the first, 0.86 for the second.

Compared with LCLC-97TM1, NCI-H520 is lower in relative viability: 0.23 for the first, 0.216 for the second.

Compared with NCI-H2228, NCI-H23 is higher in relative viability: 0.144 for the first, 0.215 for the second.

Going from HCC-827 to NCI-H2347, the relative viability rises from 0.215 to 0.522.

Cell Line LXF-289 has a relative viability of 0.632.

What follows are cell lines tested with COc1cccc2cc(-c3nc([C@H]4CC[C@H](C(=O)O)CC4)n4ncnc(N)c34)[nH]c12 [OSI-027] + Cc1nc(Nc2ncc(C(=O)Nc3c(C)cccc3Cl)s2)cc(N2CCN(CCO)CC2)n1 [Dasatinib] (partner 0.075 µM) in the same assay as above. Details: first compound 0.01 µM.
How it was run: as §1

Compared with NCI-H2085, NCI-H727 is higher in relative viability: 0.199 for the first, 0.368 for the second.

First: NCI-H647
Second: HARA
The relative viability of the first is lower: 0.126 for the first, 0.227 for the second.

Going from NCI-H3122 to NCI-H358, the relative viability falls from 0.831 to 0.154.

Compared with CAL-12T, COR-L 105 is lower in relative viability: 0.4 for the first, 0.322 for the second.

Going from LCLC-97TM1 to NCI-H520, the relative viability falls from 0.91 to 0.254.

Going from NCI-H2228 to NCI-H23, the relative viability rises from 0.506 to 0.718.

First: HCC-827
Second: NCI-H2347
The relative viability of the first is higher: 0.298 for the first, 0.281 for the second.

Cell Line LXF-289 has a relative viability of 0.175.

Same assay, conditions: first compound 0.03162 µM

First: NCI-H2085
Second: NCI-H727
The relative viability of the first is lower: 0.222 for the first, 1.04 for the second.

First: NCI-H647
Second: HARA
The relative viability of the first is lower: 0.14 for the first, 0.247 for the second.

Compared with NCI-H3122, NCI-H358 is lower in relative viability: 0.844 for the first, 0.183 for the second.

Going from CAL-12T to COR-L 105, the relative viability falls from 0.376 to 0.328.

Compared with LCLC-97TM1, NCI-H520 is lower in relative viability: 0.907 for the first, 0.192 for the second.

First: NCI-H2228
Second: NCI-H23
The relative viability of the first is lower: 0.467 for the first, 0.899 for the second.

Going from HCC-827 to NCI-H2347, the relative viability rises from 0.295 to 0.379.

Work on LXF-289 yielded a relative viability of 0.216.

Same assay, conditions: first compound 0.1 µM

Compared with NCI-H2085, NCI-H727 is higher in relative viability: 0.188 for the first, 0.354 for the second.

Compared with NCI-H647, HARA is higher in relative viability: 0.157 for the first, 0.25 for the second.

Compared with NCI-H3122, NCI-H358 is lower in relative viability: 0.923 for the first, 0.158 for the second.

Compared with CAL-12T, COR-L 105 is lower in relative viability: 0.367 for the first, 0.299 for the second.

First: LCLC-97TM1
Second: NCI-H520
The relative viability of the first is higher: 0.849 for the first, 0.143 for the second.

Compared with NCI-H2228, NCI-H23 is higher in relative viability: 0.568 for the first, 0.867 for the second.

Compared with HCC-827, NCI-H2347 is lower in relative viability: 0.326 for the first, 0.205 for the second.

Work on LXF-289 yielded a relative viability of 0.198.

Same assay, conditions: first compound 0.3162 µM

First: NCI-H2085
Second: NCI-H727
The relative viability of the first is lower: 0.227 for the first, 0.394 for the second.

Compared with NCI-H647, HARA is higher in relative viability: 0.171 for the first, 0.253 for the second.

Compared with NCI-H3122, NCI-H358 is lower in relative viability: 0.631 for the first, 0.127 for the second.

Going from CAL-12T to COR-L 105, the relative viability falls from 0.36 to 0.236.

First: LCLC-97TM1
Second: NCI-H520
The relative viability of the first is higher: 0.746 for the first, 0.133 for the second.

Compared with NCI-H2228, NCI-H23 is higher in relative viability: 0.445 for the first, 0.746 for the second.

Going from HCC-827 to NCI-H2347, the relative viability falls from 0.226 to 0.22.

LXF-289 showed a relative viability of 0.182.

Same assay, conditions: first compound 1 µM

Compared with NCI-H2085, NCI-H727 is higher in relative viability: 0.211 for the first, 0.339 for the second.

Compared with NCI-H647, HARA is higher in relative viability: 0.071 for the first, 0.209 for the second.

First: NCI-H3122
Second: NCI-H358
The relative viability of the first is higher: 0.391 for the first, 0.132 for the second.
